Test results as given in article PMC9783573, “Introduction of a SiFA Moiety into the D-Glutamate Chain of DOTA-PP-F11N Results in Radiohybrid-Based CCK-2R-Targeted Compounds with Improved Pharmacokinetics In Vivo” (Pharmaceuticals, 2022).
Read-outs that look alike come from different tables or passages of the source. Starred links: 1 amine or outer side, 2 acyl side, 3 side chain; linkers in the order of their positions; H or OH if unused. Non-standard residues stand in square brackets, D forms with d. Residues, ends and D or L forms follow the SMILES beside them. *: point of attachment. X1 = O=C(O)CN1CCN(CC(=O)O)CCN([C@H](CCC(=O)*)C(=O)O)CCN(CC(=O)O)CC1; Benzoyl(4-SiFtBu2) = CC(C)(C)[Si](F)(c1ccc(C(=O)*)cc1)C(C)(C)C; d(γGlu) = O=C(O)[C@@H](CCC(=O)[*:2])N[*:1]; Nle = CCCC[C@H](N)C(=O)O; dDap = NC[C@@H](N)C(=O)O

How the values were obtained:
[1] = Lipophilicity, n-octanol/PBS (pH 7.4) distribution coefficient; assay type: physicochemical
Description: Lipophilicity (depicted as octanol-phosphate-buffered saline solution (PBS, pH = 7.4) distribution coefficient, logD7.4) was determined via dissolving the ^177Lu-labelled peptide (approx. 1 MBq) in a mixture (1/1, v/v) of n-octanol and PBS. The suspension was vortexed in a reaction vial (1.5 mL) for 3 min at RT and the vial was centrifuged at 9000× […] for 5 min (Biofuge 15, Heraus Sepatech GmbH, Osterode, Germany). 200 μL aliquots of both layers were measured separately in a γ-counter (Perkin Elmer, Waltham, MA, USA). The experiment was repeated at least five times.

CCK-2R = molecular target: T1, CCK-2R (Rattus norvegicus, UniProt P30553); assay: Competitive binding (IC50) on AR42J cells with [177Lu]Lu-DOTA-PP-F11N as radiolabelled reference; settings: natLu-labelled peptide; AR42J cells 2.0 × 10^5/well, 3 h, 37 °C, [177Lu]Lu-DOTA-PP-F11N 0.3 pmol/well
T1 construct: CCK-2R expressing rat pancreatic cancer cells AR42J (CLS GmbH, Eppelheim,; host or cells: AR42J rat pancreatic cancer cells
T1 sequence (P30553 1-452): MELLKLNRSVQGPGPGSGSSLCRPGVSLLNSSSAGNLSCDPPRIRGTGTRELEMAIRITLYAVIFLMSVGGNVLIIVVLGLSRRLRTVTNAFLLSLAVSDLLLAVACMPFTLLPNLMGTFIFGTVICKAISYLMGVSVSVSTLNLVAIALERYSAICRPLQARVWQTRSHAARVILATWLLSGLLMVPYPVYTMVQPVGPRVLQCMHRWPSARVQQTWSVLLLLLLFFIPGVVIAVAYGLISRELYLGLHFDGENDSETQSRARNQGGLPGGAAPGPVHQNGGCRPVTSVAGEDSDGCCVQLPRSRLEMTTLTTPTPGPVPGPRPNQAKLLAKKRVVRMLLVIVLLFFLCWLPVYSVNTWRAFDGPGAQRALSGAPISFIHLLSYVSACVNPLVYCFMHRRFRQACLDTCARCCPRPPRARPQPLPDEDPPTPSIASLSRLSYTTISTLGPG
Description: Detailed description of all cell-based experiments is provided in the Supplementary Materials. In brief, competitive binding studies were conducted on AR42J cells (2.0 × 10^5 cells per 1 mL/well) via incubation at 37 °C for 3 h using [^177Lu]Lu-DOTA-PP-F11N (0.3 pmol) as a radiolabelled reference (n = 3).
Cell Culture. CCK-2R expressing rat pancreatic cancer cells AR42J (CLS GmbH, Eppelheim, Germany) were cultivated in monolayers in CELLSTAR ® cell culture flasks acquired from Greiner Bio-One GmbH (Frickenhausen, Germany) at 37 °C in a humidified atmosphere (5% CO2) using a HERAcell 150i-Incubator (Thermo Fisher Scientific Inc., Waltham, United States). As nutrient medium RPMI 1640 medium, supplemented with 5 mM L-Gln 5 mL non-essential amino acids (100×) and 10% FCS, was used. Furthermore, a Dulbecco’s PBS solution with 0.1% EDTA (v/v) was applied to detach the cells for cell passaging. The detached cells were counted using a Neubauer hemocytometer ( Paul Marienfeld, Lauda-Königshofen, Germany). In addition, all operations under sterile conditions were accomplished using a MSC-Advantage safety workbench (Thermo Fisher Scientific Inc., Waltham, United States).
Determination of IC50. AR42J cells (2.0 × 10^5 cells/well) were seeded into 24-well plates 24 ± 2 h prior to testing, using 1 mL of nutrient medium (RPMI 1640, 5 mM L-Gln, 5 mL non-essential amino acids (100×), 10% FCS). Cells were incubated at 37 °C in a humidified atmosphere (5% CO2).
After removal of the medium, each well was washed with 500 μL PBS. For the cell-based assay, 200 μL of nutrient medium (+5% BSA), [177Lu]Lu-DOTA-PP-F11N (25 μL, 0.3 pmol) as a radiolabeled reference and 25 μL of the peptide of interest in increasing concentrations (10−10 to 10−4 M) in triplicate were added to the cells. Thereafter, the assay was incubated for 3 h at 37 °C and thereafter, the supernatant was collected. The cells were washed with 300 μL PBS and the collected supernatant fractions were unified.
After lysis of the cells with NaOH (300 μL, 1 N) for 15 min, the respective wells were washed with NaOH (300 μL, 1 N) and both fractions were unified. The radioactivity of both, the supernatant and the lysed fractions was quantified using a γ-counter (PerkinElmer Inc., Waltham, United States ). The obtained data were evaluated via the GraphPad PRISM software ( GraphPad Software Inc., La Jolla, United States), which calculates the halfmaximal inhibitory concentration ( IC50) of the peptides. […]

[2] = 177Lu-labelled peptide, n-octanol/PBS pH 7.4, read-out: logD7.4

Row | Structure (SMILES) | logD [1, 2] | IC50 (CCK-2R) [nM] | logD ([1]; pH 7.4)
1 | CCCC[C@H](NC(=O)[C@H](Cc1c[nH]c2ccccc12)NC(=O)CNC(=O)[C@H](Cc1ccc(O)cc1)NC(=O)[C@H](C)NC(=O)[C@@H](CCC(=O)O)NC(=O)[C@@H](CCC(=O)O)NC(=O)[C@@H](CNC(=O)c1ccc([Si](F)(C(C)(C)C)C(C)(C)C)cc1)NC(=O)[C@@H](CCC(=O)O)NC(=O)[C@@H](CCC(=O)O)NC(=O)[C@@H](CCC(=O)O)NC(=O)[C@@H](CCC(=O)O)NC(=O)CC[C@H](C(=O)O)N1CCN(CC(=O)O)CCN(CC(=O)O)CCN(CC(=O)O)CC1)C(=O)N[C@@H](CC(=O)O)C(=O)N[C@@H](Cc1ccccc1)C(N)=O [[nat/177Lu]Lu-(R)-DOTAGA-rhCCK-3, metal not drawn] (X1-[dE][dE][dE][dE][dDap](Benzoyl(4-SiFtBu2))[dE][dE]AYGW[Nle]DF-NH2) | -2.03 ± 0.1 | 156 ± 4 | –
2 | CCCC[C@H](NC(=O)[C@H](Cc1c[nH]c2ccccc12)NC(=O)CNC(=O)[C@H](Cc1ccc(O)cc1)NC(=O)[C@H](C)NC(=O)[C@@H](CCC(=O)O)NC(=O)[C@@H](CCC(=O)O)NC(=O)[C@@H](CCC(=O)O)NC(=O)[C@@H](CCC(=O)O)NC(=O)[C@@H](CCC(=O)O)NC(=O)[C@@H](CNC(=O)c1ccc([Si](F)(C(C)(C)C)C(C)(C)C)cc1)NC(=O)[C@@H](CCC(=O)O)NC(=O)CC[C@H](C(=O)O)N1CCN(CC(=O)O)CCN(CC(=O)O)CCN(CC(=O)O)CC1)C(=O)N[C@@H](CC(=O)O)C(=O)N[C@@H](Cc1ccccc1)C(N)=O [[nat/177Lu]Lu-(R)-DOTAGA-rhCCK-6, metal not drawn] (X1-[dE][dDap](Benzoyl(4-SiFtBu2))[dE][dE][dE][dE][dE]AYGW[Nle]DF-NH2) | -2.22 ± 0.08 | – | –
3 | CCCC[C@H](NC(=O)[C@H](Cc1c[nH]c2ccccc12)NC(=O)CNC(=O)[C@H](Cc1ccc(O)cc1)NC(=O)[C@H](C)NC(=O)[C@@H](CCC(=O)O)NC(=O)[C@@H](CNC(=O)c1ccc([Si](F)(C(C)(C)C)C(C)(C)C)cc1)NC(=O)[C@@H](CCC(=O)O)NC(=O)[C@@H](CCC(=O)O)NC(=O)[C@@H](CCC(=O)O)NC(=O)[C@@H](CCC(=O)O)NC(=O)[C@@H](CCC(=O)O)NC(=O)CC[C@H](C(=O)O)N1CCN(CC(=O)O)CCN(CC(=O)O)CCN(CC(=O)O)CC1)C(=O)N[C@@H](CC(=O)O)C(=O)N[C@@H](Cc1ccccc1)C(N)=O [[nat/177Lu]Lu-(R)-DOTAGA-rhCCK-2, metal not drawn] (X1-[dE][dE][dE][dE][dE][dDap](Benzoyl(4-SiFtBu2))[dE]AYGW[Nle]DF-NH2) | -1.95 ± 0.09 | – | –
4 | CCCC[C@H](NC(=O)[C@H](Cc1c[nH]c2ccccc12)NC(=O)CNC(=O)[C@H](Cc1ccc(O)cc1)NC(=O)[C@H](C)NC(=O)CC[C@@H](NC(=O)[C@@H](CNC(=O)c1ccc([Si](F)(C(C)(C)C)C(C)(C)C)cc1)NC(=O)CC[C@@H](NC(=O)CC[C@@H](NC(=O)CC[C@@H](NC(=O)CC[C@@H](NC(=O)CC[C@@H](NC(=O)CC[C@H](C(=O)O)N1CCN(CC(=O)O)CCN(CC(=O)O)CCN(CC(=O)O)CC1)C(=O)O)C(=O)O)C(=O)O)C(=O)O)C(=O)O)C(=O)O)C(=O)N[C@@H](CC(=O)O)C(=O)N[C@@H](Cc1ccccc1)C(N)=O [[nat/177Lu]Lu-(R)-DOTAGA-rhCCK-11, metal not drawn] ({X1-d(γGlu)-d(γGlu)-d(γGlu)-d(γGlu)-d(γGlu)}-[dDap](Benzoyl(4-SiFtBu2))[d(γGlu)]AYGW[Nle]DF-NH2) | -2.23 ± 0.07 | – | –
5 | CCCC[C@H](NC(=O)[C@H](Cc1c[nH]c2ccccc12)NC(=O)CNC(=O)[C@H](Cc1ccc(O)cc1)NC(=O)[C@H](C)NC(=O)CC[C@@H](NC(=O)CC[C@@H](NC(=O)CC[C@@H](NC(=O)CC[C@@H](NC(=O)[C@@H](CNC(=O)c1ccc([Si](F)(C(C)(C)C)C(C)(C)C)cc1)NC(=O)CC[C@@H](NC(=O)CC[C@@H](NC(=O)CC[C@H](C(=O)O)N1CCN(CC(=O)O)CCN(CC(=O)O)CCN(CC(=O)O)CC1)C(=O)O)C(=O)O)C(=O)O)C(=O)O)C(=O)O)C(=O)O)C(=O)N[C@@H](CC(=O)O)C(=O)N[C@@H](Cc1ccccc1)C(N)=O [[nat/177Lu]Lu-(R)-DOTAGA-rhCCK-14, metal not drawn] ({X1-d(γGlu)-d(γGlu)}-[dDap](Benzoyl(4-SiFtBu2))[d(γGlu)][d(γGlu)][d(γGlu)][d(γGlu)]AYGW[Nle]DF-NH2) | -2.26 ± 0.05 | – | –
6 | CSCC[C@H](NC(=O)[C@H](Cc1c[nH]c2ccccc12)NC(=O)CNC(=O)[C@H](Cc1ccc(O)cc1)NC(=O)[C@H](C)NC(=O)CC[C@@H](NC(=O)CC[C@@H](NC(=O)CC[C@@H](NC(=O)CC[C@@H](NC(=O)CC[C@@H](NC(=O)CC[C@@H](NC(=O)CN1CCN(CC(=O)O)CCN(CC(=O)O)CCN(CC(=O)O)CC1)C(=O)O)C(=O)O)C(=O)O)C(=O)O)C(=O)O)C(=O)O)C(=O)N[C@@H](CC(=O)O)C(=O)N[C@@H](Cc1ccccc1)C(N)=O [[nat/177Lu]Lu-γ-CP04, metal not drawn] | – | – | -4.3 ± 0.08
